One data set addresses T1, LAT1 (Homo sapiens, UniProt Q01650).
T1 construct: Using human bladder cancer cell strain T24 cells, in which LAT1 only was strongly expressed; endogenous in cells; host or cells: T24 human bladder cancer cells
The data set can be described thus: LAT1 inhibiting activity: inhibition of 14C-L-leucine uptake in T24 cells. The conditions noted are these: 1 μM 14C-Leu, 1-minute uptake. Format: cell-based. As to the method: 1) To each of the weighed test compounds, DMSO was added to prepare a 100 mM solution or suspension as a DMSO stock. In an assay, the stock was diluted 1,000 fold with a buffer described below. The final concentration of the test compound was 100 μM and the final concentration of DMSO was 0.1%.
2) The LAT1 inhibiting activity of the test compound was determined in the following manner. Using human bladder cancer cell strain T24 cells, in which LAT1 only was strongly expressed, inhibiting activity of each test compound against “^14C”-L-leucine uptake was determined as the LAT1 inhibiting activity.
T24 cells in a logarithmic growth-phase were transferred to a 24-well plate at 0.8×10^5 cell/well and cultured at 37° C. for 2 days. After the plate was incubated at 37° C. on a water bath for 5 minutes, the fixed cells were washed three times with a Hank's balanced salt solution (HBSS: 25 mM HEPES, 125 mM choline chloride, 5.6 mM glucose, 4.8 mM KCl, 1.2 mM MgSO4, 1.2 mM KH2PO4, 1.3 mM CaCl2, pH 7.4) warmed to 37° C., not containing Na^+, to which 500 μl of HBSS (37° C.) was added. Then, further incubation was carried out for 7 minutes.
After the incubation was finished, a supernatant was replaced with HBSS containing 1 μM ^14C-Leu and 100 μM test compound (37° C.), followed by 1-minute uptake. Then, the cells were washed three times with HBSS of 4° C. The washed cells were added with 500 μl of 0.1 N NaOH to dissolve the cells for 20 minutes. The cell solution was transferred to a vial, to which 3 ml of a scintillator was added to measure the radioactivity with a liquid scintillation counter.
Inhibition % was calculated by the following formula. Inhibition %=100−(radioactivity of the well added with the test compound)/(radioactivity of the well not added with the test compound)×100

Data set [1] is described as follows: Acute toxicity test, intravenous administration of mice (LD50). The conditions noted are these: mouse, in vivo. How it is done: Further, with respect to the compounds of Examples 77-79 and Example 98, an acute toxicity test for intravenous administration of mice were carried out to obtain LD50.
Data set [2] addresses T2, human LAT1 (hLAT1) (Homo sapiens, UniProt Q01650).
T2 construct: expressed in transfected cells; host or cells: Xenopus laevis oocytes injected with cRNA
The data set can be described thus: Inhibition of leucine uptake into hLAT1 expressing Xenopus oocytes. Format: cell-based. The conditions noted are these: 10 μM 14C-Leu, 30 minutes uptake, oocytes with hLAT1 and h4F2hc cRNA. As to the method: (§1) 1) First, human LAT1 (hereinafter referred to as hLAT1), human LAT2 (hereinafter referred to as hLAT2) and human 4F2hc (hereinafter referred to as h4F2hc) were linearized by restriction enzyme treatment. After ethanol precipitation, they were dissolved in a DEPC treatment solution to prepare a mold cDNA. Then, in vitro transcription reaction was carried out in the following manner.
(§2) Reaction composition (50 μl in total) • Mold cDNA 1.5 μg • RNasin RNase inhibitor (Promega) 100 U • rNTP (Amersham. Pharmacia) 10 mM each (rGTP was 1 mM) • DTT 30 mM • m7G(5′)ppp(5′)G (Amersham. Pharmacia) […] • RNA polymerase (Stratagene) 50 U • Transcription buffer
(§3) As the RNA polymerase for hLAT1, hLAT2 and h4F2hc, T3, SP6 and T7 were used, respectively.
(§4) After the above reagents were mixed, they were reacted at 37° C. for 10 minutes, added with 1 μL of 5 mM rGTP, and reacted again at 37° C. for 10 minutes. Further, 1 μL of 5 mM rGTP was added and the reaction was carried out again at 37° C. for 10 minutes. Then, RNase-free DNase (Stratagene) was added and mixed, followed by incubation at 37° C. for 20 minutes. The reaction solution was sequentially extracted with phenol/chloroform, and then with chloroform. Then, half amount of 7.5 M NH4OAc and 2.5-fold amount of cold ethanol were added to perform ethanol precipitation. After centrifugation at 15000 rpm for 30 minutes, the resulting precipitate was washed with cold 80% ethanol and dissolved in 100 μL of a DEPC treatment solution. Thereafter, ethanol precipitation was performed again. The precipitate obtained by centrifugation at 15000 rpm for 30 minutes was washed with cold 80% ethanol and dried for 20 minutes in a centrifugal concentrator. Then, it was dissolved in a DEPC treatment solution to 0.5 mg/mL to prepare a cRNA solution. Thus, cRNA was prepared by in vitro transcription reaction.
(§5) 2) Xenopus laevis was anesthetized by immersing into an anesthetic solution (0.2% MS-222, 0.3% KHCO3), and then cut open in the abdominal region on ice to take out an oocyte mass under the peritoneum. The extracted oocyte mass was shredded with tweezers, which was added to an OR2 culture medium (5 mM HEPES, 82.5 mM NaCl, 2 mM KCl, 1 mM MgCl2, pH 7.5) containing 2 mg/mL of collagenase, incubated at room temperature for about 30 minutes, washed with the OR2 culture medium and transferred into a Barth culture medium (10 mM HEPES, 88 mM NaCl, 1 mM KCl, 0.33 mM Ca(NO3)2, 0.41 mM CaCl2, 0.82 mM MgSO4, 2.4 mM NaHCO3, pH 7.4).
(§6) Then, a follicular cell layer covering the oocytes was peeled under a stereoscopic microscope to isolate the oocytes, to which 50 nL of a cRNA solution was added, respectively. As the cRNA, an equimolar mixture of hLAT1 cRNA and h4F2hc cRNA was injected into the oocytes for hLAT1 expression, and an equimolar mixture of hLAT2 cRNA and h4F2hc cRNA was injected into the oocytes for hLAT2 expression.
(§7) The control cell was injected with distilled water.
(§8) 3) The oocytes after the injection were cultured in a Barth culture medium containing gentamicin for 2 days, from which healthy oocytes were selected and transferred to a 24-well plate at 8-10 cell/well.
(§9) First, after washing twice with choline 100 (5 mM HEPES, 100 mM choline Cl, 2 mM KCl, 1.8 mM CaCl2, 1 mM MgCl2, pH 7.4) at room temperature, choline 100 containing 10 μM ^14C-Leu and specimens of various concentrations was added for an uptake for 30 minutes. Then, after washing with choline 100 of 4° C. six times, the oocytes were transferred to vials one by one and 250 μL of 10% SDS was added thereto, which was shaken at room temperature for an hour to be dissolved. After an hour, the solution was added with 3 mL of a scintillator to measure the radioactivity using a liquid scintillation counter. Inhibition rate was calculated by the following formula using an average value of 8 to 10 cells. Inhibition rate (%)=100−(radioactivity of the well added with the test compound)/(radioactivity of the well not added with the test compound)×100 […]

Data set [3] concerns human LAT1 (hLAT1). The data set is described as above. Format: cell-based. The conditions noted are these: IC50 hLAT2 expressing cells / IC50 hLAT1 expressing cells. As to the method: as §1, §2, §3, §4, §5, §6, §7, §8, §9
The subject of a further data set is sarcoma 180 cells. The data set can be described thus: Sarcoma 180 subcutaneous implant in mice, tumor weight. Format: in vivo, ICR mice. Particulars: 100 mg/kg intravenously for 7 days; tumor weight 10 days after implantation. How it is done:
In an inguinal region of ICR mice, 1×10^6 sarcoma 180 cells were implanted subcutaneously. After 24 hours from the implantation, administration of the test compounds (Example 6-3) and Example 49-3)) was started, which was continued intravenously for 7 days. Each of the test compounds was dissolved in a physiologic saline containing 10% DMSO and 10% Tween 80 so that the amount of the test compound became 100 mg/kg, which was intravenously administered in an amount of 0.1 ml per 10 g of body weight. After 10 days from the implantation, tumor weight was measured and a proliferation inhibiting rate was calculated by the following formula to be compared with that of nontreated controls. Proliferation inhibiting rate (T/C)=[1−(average tumor weight of the group added with the test compound/average tumor weight of the control group)]×100

The next data set deals with T3, human LAT2 (hLAT2) (Homo sapiens, UniProt Q9UHI5).
T3 construct: expressed in transfected cells; host or cells: Xenopus laevis oocytes injected with cRNA
T3 sequence (Q9UHI5 1-535): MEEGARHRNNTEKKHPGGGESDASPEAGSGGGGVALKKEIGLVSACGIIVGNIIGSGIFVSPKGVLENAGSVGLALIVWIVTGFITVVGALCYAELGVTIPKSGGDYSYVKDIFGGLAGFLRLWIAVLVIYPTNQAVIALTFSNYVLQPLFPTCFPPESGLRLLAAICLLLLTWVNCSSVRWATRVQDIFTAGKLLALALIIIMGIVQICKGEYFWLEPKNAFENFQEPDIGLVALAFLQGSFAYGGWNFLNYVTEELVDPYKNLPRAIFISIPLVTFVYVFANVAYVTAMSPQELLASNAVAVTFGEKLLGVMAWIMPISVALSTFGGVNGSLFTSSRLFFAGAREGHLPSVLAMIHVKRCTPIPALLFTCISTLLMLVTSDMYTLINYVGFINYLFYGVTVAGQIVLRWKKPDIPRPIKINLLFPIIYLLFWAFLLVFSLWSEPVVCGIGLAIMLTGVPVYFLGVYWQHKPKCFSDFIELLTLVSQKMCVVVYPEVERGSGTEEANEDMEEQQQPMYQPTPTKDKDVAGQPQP
The data set can be described thus: Inhibition of leucine uptake into hLAT2 expressing Xenopus oocytes. The class given is cell-based. Particulars: 10 μM 14C-Leu, 30 minutes uptake, oocytes with hLAT2 and h4F2hc cRNA. How it is done: as §1, §2, §3, §4, §5, §6, §7, §8, §9

The results in this text go back to US7345068B2, “Aromatic amino acid derivatives and medicinal compositions” (priority 2002, dated 2008).

In general, IC50 refers to the concentration needed to halve the response being measured. Read a high IC50 as weaker potency. By LD50 is commonly meant the dose at which mortality reaches 50%. The low end stands for greater toxicity, the high end for lower toxicity. As a reminder, the melting point is the temperature of the solid-liquid transition.

T2 sequence (Q01650 whole entry): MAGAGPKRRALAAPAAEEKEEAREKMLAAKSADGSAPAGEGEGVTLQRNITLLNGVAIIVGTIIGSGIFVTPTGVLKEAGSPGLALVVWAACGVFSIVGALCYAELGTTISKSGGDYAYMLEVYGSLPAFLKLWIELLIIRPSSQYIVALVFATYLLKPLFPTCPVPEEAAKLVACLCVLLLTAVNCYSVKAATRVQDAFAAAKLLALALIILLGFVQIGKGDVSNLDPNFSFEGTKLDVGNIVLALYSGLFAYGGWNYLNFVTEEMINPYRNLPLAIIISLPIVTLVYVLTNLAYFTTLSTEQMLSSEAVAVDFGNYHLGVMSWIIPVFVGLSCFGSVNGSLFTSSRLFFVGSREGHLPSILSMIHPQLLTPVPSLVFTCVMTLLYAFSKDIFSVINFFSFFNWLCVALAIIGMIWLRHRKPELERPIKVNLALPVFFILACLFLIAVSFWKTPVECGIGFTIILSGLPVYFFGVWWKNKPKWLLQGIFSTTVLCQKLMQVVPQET
T1 sequence (Q01650 whole entry): as above
T1 sequence (P08195 102-630 partner): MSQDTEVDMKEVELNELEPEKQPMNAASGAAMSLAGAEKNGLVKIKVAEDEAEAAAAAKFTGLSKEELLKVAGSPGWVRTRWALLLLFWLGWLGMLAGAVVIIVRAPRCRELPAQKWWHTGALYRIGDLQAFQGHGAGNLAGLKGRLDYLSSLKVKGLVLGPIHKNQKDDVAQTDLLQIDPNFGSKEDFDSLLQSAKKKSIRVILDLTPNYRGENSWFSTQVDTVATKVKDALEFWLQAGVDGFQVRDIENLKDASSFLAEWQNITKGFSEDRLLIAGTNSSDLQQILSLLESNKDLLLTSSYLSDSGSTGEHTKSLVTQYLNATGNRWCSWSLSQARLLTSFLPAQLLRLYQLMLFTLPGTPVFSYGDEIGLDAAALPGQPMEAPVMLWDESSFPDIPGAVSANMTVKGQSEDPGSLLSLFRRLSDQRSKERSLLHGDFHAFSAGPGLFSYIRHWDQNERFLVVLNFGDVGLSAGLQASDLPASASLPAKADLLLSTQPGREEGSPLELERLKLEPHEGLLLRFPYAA

For `NC1(C(=O)O)CC2CCC1C2` (centres unmarked) [BCH, 2-aminobicyclo-(2,2,1)-heptane-2-carboxylic acid, reference compound], on LAT1, half-maximal inhibition (IC50) required 100 µM. For the same molecule, the LD50 in data set [1] was not below 300 mg/kg.

For `N[C@@H](Cc1cc(Cl)c(OCc2cccc3nc(-c4ccccc4)oc23)c(Cl)c1)C(=O)O` [Example 6-2), 3,5-dichloro-O-[(2-phenyl)-benzoxazol-7-yl]methyl-L-tyrosine], the melting point is 233 to 238 °C (dec.). For the same molecule, on LAT1, half-maximal inhibition (IC50) was put at 0.3 µM. Further, on human LAT1 (hLAT1) [2], inhibition was half-maximal at 0.1 µM (IC50). For the same molecule, the “Selectivity (L2/L1)” value with human LAT1 (hLAT1) [3] was determined as 1000 times.

Take `COC(=O)[C@@H](N)Cc1cc(Cl)c(OCc2cccc3nc(-c4ccccc4)oc23)c(Cl)c1.Cl` [Example 6-3), 3,5-Dichloro-O-[(2-phenyl)-benzoxazol-7-yl]methyl-L-tyrosine methyl ester hydrochloride]: the melting point was 225 to 225.5 °C (dec.). For the same molecule, the proliferation inhibiting rate in the data set on sarcoma 180 cells stood at 52.2%.

For the molecule `N[C@@H](Cc1cc(Cl)c(OCCc2coc(-c3ccccc3)n2)c(Cl)c1)C(=O)O` [Example 9], the melting point was in the range of 198 to 205 °C. In addition, 0.7 µM corresponded to half-maximal inhibition against human LAT1 (hLAT1) [2] (IC50). The “Selectivity (L2/L1)” value with human LAT1 (hLAT1) [3] amounted to 100 times. At human LAT2 (hLAT2), this molecule came in with an IC50 of 69 µM.

For `N[C@@H](Cc1cc(Cl)c(OCCc2csc(-c3ccccc3)n2)c(Cl)c1)C(=O)O` [Example 15], the melting point is 205 to 210 °C (dec.). Further, the IC50 against human LAT1 (hLAT1) [2] was less than 1 µM. Further, in the data set on human LAT1 (hLAT1) [3], the “Selectivity (L2/L1)” value is on record as not below 100 times. At human LAT2 (hLAT2), this molecule returned an IC50 of more than 100 µM.

Take `N[C@@H](Cc1cc(Cl)c(OCCc2coc(-c3ccc4ccccc4c3)n2)c(Cl)c1)C(=O)O` [Example 17]: the melting point is 232 to 233 °C (dec.). Further, at human LAT1 (hLAT1) [2], the IC50 is less than 1 µM. The “Selectivity (L2/L1)” value with human LAT1 (hLAT1) [3] is not below 100 times. On human LAT2 (hLAT2), the IC50 is more than 100 µM.

In the case of `N[C@@H](Cc1cc(Cl)c(OCCc2cccc3nc(-c4ccccc4)oc23)c(Cl)c1)C(=O)O` [Example 23], the melting point is 205 to 215 °C (dec.). On human LAT1 (hLAT1) [2], this molecule registered an IC50 of less than 1 µM. For the same molecule, the “Selectivity (L2/L1)” value in the data set with human LAT1 (hLAT1) [3] is recorded as not below 100 times. Further, on human LAT2 (hLAT2), the IC50 was more than 100 µM.

In the case of `COC(=O)[C@@H](N)Cc1cccc(Oc2ccc3ccccc3c2)c1.Cl` [Example 49-3), 3-(2-naphthyloxy)-L-phenylalanine methyl ester hydrochloride], the melting point is 209 to 211 °C (dec.). Moreover, the proliferation inhibiting rate in the data set on sarcoma 180 cells came out at 41.3%.

Consider `N[C@@H](Cc1cccc(Oc2ccc(Oc3ccc(O)cc3)cc2)c1)C(=O)O` [Example 57, 3-[4-(4-hydroxyphenoxy)phenoxy]-L-phenylalanine], for which the melting point was 234 to 237 °C (dec.). Besides, the “Selectivity (L2/L1)” value with human LAT1 (hLAT1) [3] was 0.02 times. The molecule also showed an IC50 at human LAT2 (hLAT2) of 0.2 µM.

With `N[C@@H](Cc1cccc(OCCc2ccc3ccccc3c2)c1)C(=O)O` [Example 59, 3-[2-(2-naphthyl)ethoxy]-L-phenylalanine], the melting point is 210 to 214 °C (dec.). The “Selectivity (L2/L1)” value in the data set on human LAT1 (hLAT1) [3] is reported as not above 0.1 times. This molecule displayed an IC50 on human LAT2 (hLAT2) of less than 1 µM.

Consider `N[C@@H](Cc1cccc(OCCc2ccc3c(c2)CCCC3)c1)C(=O)O` [Example 60, 3-[2-[2-(5,6,7,8-tetrahydro-naphthyl)]ethoxy]-L-phenylalanine], for which the melting point is 198 to 202 °C (dec.). In the data set on human LAT1 (hLAT1) [3], the “Selectivity (L2/L1)” value is recorded as not above 0.1 times. In addition, the IC50 against human LAT2 (hLAT2) is less than 1 µM.
